From the supplement of paper PMC6723410

Assays:
GUMC-403 [1] = assay: AC50 for reduction of cell viability; higher = less potent; conditions: 48 h
GUMC-403 [2] = assay: viability at highest tested concentration (max response) relative to DMSO (% of DMSO control); higher = less cytotoxic; conditions: library / dose series: MIPE library, 11-point 1:3 dilution; top concentration 46.1 µM; 48 h
Procedure, shortened: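 Plates of 1536 wells were seeded with 700 patient-derived GUMC-403 papilloma cells per well, grown by conditional reprogramming, in 5 μL F + Y medium and kept overnight at 37 °C. Compounds followed at 23 nL by pin tool over an 11-point 1:3 series, for 48 h. After a CellTiter-Glo luminescence read on a ViewLux, signals were set against vehicle wells as 100% and empty wells as 0%. The reported number is viability at the highest tested concentration relative to vehicle control.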

[3] = library / dose series: MIPE library, 11-point 1:3 dilution
[4] = library / dose series: NPC library, 8-point 1:5 dilution

SMILES	AC50 for reduction of cell viability (GUMC-403 [1]; [3])	viability (GUMC-403 [2])	AC50 for reduction of cell viability (GUMC-403 [1]; [4])
N#CC(=C(/N)Sc1ccccc1N)/C(C#N)=C(\N)Sc1ccccc1N	4.69 µM	50.4	–
C/C(=N\NC(=S)N1CCC1)c1ccccn1	4.18 µM	44	–
C/C=C(/C)C(=O)O[C@H]1C(C)=C2[C@H]([C@@H]1OC(=O)CCCCCCC)[C@@](C)(OC(C)=O)C[C@H](OC(=O)CCC)[C@@]1(O)[C@H]2OC(=O)[C@@]1(C)O	0.526 µM	57.2	–
COc1cc2nc(-c3ccc(N4CCN(C)CC4)cc3)nc(NCCN3CCOCC3)c2cc1OC	1.05 µM	48.5	–
CC(C)NC[C@@H](C(=O)N1CCN(c2ncnc3c2[C@H](C)C[C@H]3O)CC1)c1ccc(Cl)cc1	2.35 µM	76.6	–
Cc1nc2cnc3ccc(C#Cc4cccnc4)cc3c2n1-c1ccc(C(C)(C)C#N)cc1	0.0935 µM	46.6	–
CN[C@@H]1C[C@H]2O[C@@](C)([C@@H]1OC)n1c3ccccc3c3c4c(c5c6ccccc6n2c5c31)C(=O)N[C@H]4O	1.48 µM	8.86	–
COc1ccc(-c2ccc3c(N4CCOCC4)nc(N4C[C@@H](C)O[C@@H](C)C4)nc3n2)cc1CO	1.87 µM	62.3	–
Nc1cc(C(F)(F)F)c(-c2cc(N3CCOCC3)nc(N3CCOCC3)n2)cn1	1.48 µM	44	–
CCCCCCCCCCCC[N+](C)(C)CCOc1ccccc1.[Br-]	–	–	26.6 µM
CCCCCCCCCCCCCCCC[N+](C)(C)C.[Br-]	–	–	21.1 µM
C=C[C@@]1(C)CC(=O)[C@]2(O)[C@@]3(C)[C@@H](O)CCC(C)(C)[C@@H]3[C@H](O)[C@H](OC(C)=O)[C@@]2(C)O1	–	–	1.68 µM
C[n+]1cc2c3c(ccc2c2ccc4cc5c(cc4c21)OCO5)OCO3	–	–	1.3 µM
CC(=O)Oc1ccc(C2(c3ccc(OC(C)=O)cc3)C(=O)Nc3ccccc32)cc1	–	–	0.841 µM
COc1cccc2c1C(=O)c1c(O)c3c(c(O)c1C2=O)C[C@@](O)(C(=O)CO)CC3OC1CC(N2CCOC(OC)C2)C(O)C(C)O1 (stereo partly drawn)	–	–	0.0211 µM
Cc1cc2nc3ccc(N(C)C)cc3[s+]c2cc1N.[Cl-]	–	–	18.8 µM
CN(C)C(=S)SC(=S)N(C)C	–	–	5.31 µM

SMILES	AC50 for reduction of cell viability (GUMC-403 [1]; [3])	viability (GUMC-403 [2])	AC50 for reduction of cell viability (GUMC-403 [1]; [4])
O=c1[nH]c2ccccc2n1C1CCN(CCCC(c2ccc(F)cc2)c2ccc(F)cc2)CC1	–	–	2.66 µM
CCN1C(=CC=Cc2ccc3ccccc3[n+]2CC)C=Cc2ccccc21.[I-]	–	–	2.66 µM
C/C(C)=C\CNc3ncnc1c3ncn1[C@@H]2O[C@H](CO)[C@@H](O)[C@H]2O	–	–	9.44 µM
Cc1nc(Nc2ncc(C(=O)Nc3c(C)cccc3Cl)s2)cc(N2CCN(CCO)CC2)n1	–	–	0.0841 µM
Cc1cc(N)c2cc(NC(=O)Nc3ccc4nc(C)cc(N)c4c3)ccc2n1.Cl.Cl	–	–	3.76 µM
CO[C@@]12[C@H](COC(N)=O)C3=C(C(=O)C(C)=C(N)C3=O)N1C[C@@H]1N[C@@H]12	–	–	16.8 µM
CCCCCCCCCCCCCC[N+](C)(C)C.[Br-]	–	–	26.6 µM
C[C@H]1O[C@@H](O[C@H]2CC[C@@]3(C)[C@H](CC[C@@H]4[C@@H]3C[C@@H](O)[C@]3(C)[C@@H](C5=CC(=O)OC5)CC[C@]43O)C2)C[C@H](O)[C@@H]1O[C@H]1C[C@H](O)[C@H](O[C@H]2C[C@H](O)[C@H](O[C@@H]3O[C@H](CO)[C@@H](O)[C@H](O)[C@H]3O)[C@@H](C)O2)[C@@H](C)O1	–	–	0.106 µM
CCN(CC)CCCC(C)Nc1c2ccc(Cl)cc2nc2ccc(OC)cc12.Cl.Cl.O.O (stereo not drawn)	–	–	21.1 µM
CC[P](CC)(CC)=[Au][S][C@@H]1O[C@H](COC(C)=O)[C@@H](OC(C)=O)[C@H](OC(C)=O)[C@H]1OC(C)=O	9.35 µM	–	–
CCCCCNC(=N)N/N=C/c1c[nH]c2ccc(OC)cc12	–	–	18.8 µM
CC(O)C(=O)O.CCOc1ccc2nc3cc(N)ccc3c(N)c2c1.O	–	–	18.8 µM
C[C@H]1O[C@@H](O[C@H]2[C@@H](O)C[C@H](O[C@H]3[C@@H](O)C[C@H](O[C@H]4CC[C@@]5(C)[C@H](CC[C@@H]6[C@@H]5CC[C@]5(C)[C@@H](C7=CC(=O)OC7)CC[C@]65O)C4)O[C@@H]3C)O[C@@H]2C)C[C@H](O)[C@@H]1O	–	–	0.237 µM
N=C(N/N=C\c1ccc(Cl)cc1)N/N=C/c1ccc(Cl)cc1	–	–	8.41 µM
O=C1NCCN1CCN1CCC(c2cn(-c3ccc(F)cc3)c3ccc(Cl)cc23)CC1	–	–	2.66 µM
CN(C)c1ccc2nc3ccc(N(C)C)cc3[s+]c2c1.[Cl-]	–	–	26.6 µM
CCCCC(CC)CNC(=N)NC(=N)NCCCCCCNC(=N)NC(=N)NCC(CC)CCCC.Cl.Cl (stereo not drawn)	–	–	2.66 µM
